# Reference: publication PMC4684500, “Diversity, Antimicrobial Action and Structure-Activity Relationship of Buffalo Cathelicidins” (PLoS ONE, 2015)
# Where two headings read alike, the source gives them in different places. Where no end group is shown, it is not given here.
# What was measured:
# [1] = system: bacterial biofilm (S. aureus and P. aeruginosa); assay: Biofilm assay, overall statement; type: cell-based; details: summary in discussion
# Method: (§1) The efficacy of peptides against biofilms of S. aureus and P. aeruginosa was determined using previously described method. Overnight grown bacterial cultures were diluted (1:100) and 200 μl suspensions were mixed with each peptide (1× and 2× MIC) in a 96 well plate and incubated for 24 h at 37°C. Biofilms were fixed with paraformadehyde solution, cultures were decanted and 0.1% crystal violet solution was added to stain the film. The plate was rinsed thrice with water and air-dried. The stain was dissolved by 100 μl of acetic acid (30%) and absorbance was measured at 570 nm. The experiment was performed in triplicate, 30% acetic acid was taken as a blank.
# S. typhimurium [2] = assay: LIVE/DEAD BacLight membrane permeability assay; type: cell-based, Salmonella typhimurium; details: peptide 200μM, SYTO9/PI; for Clumping (agglutination) of S. typhimurium after peptide addition: log phase culture; for Membrane permeability of latent (stationary phase) S. typhimurium: stationary phase culture, proportion of cells affected comparatively less
# Method: (§2) The damage to bacterial membrane following addition of peptide was assessed by BacLight kit (Life Technologies, CA, USA). Aliquots of S. aureus, S. enterica and P. aeruginosa cultures from exponential (shaking incubation for 2, 3, and 4 h, respectively) and stationary phases (overnight incubation) were harvested by centrifugation (5000 g for 10 min) and diluted in PBS. Peptides (200μM) were added to bacterial suspension and 50 μl aliquots were removed immediately or after 1 h incubation. Equi-volume mixtures of SYTO9/PI (3 μl/ml bacterial suspension) were added to these aliquots and fluorescent micrographs of stained bacteria were taken at 1000×magnification in a microscope (Olympus BX51 fitted with DP71 camera) with a fluorescence illuminator system.
# [3] = system: Pseudomonas aeruginosa ATCC-27853; type: cell-based
# Method: (§3) The buCATHL4 peptides were synthesized by G L Biochem (Shanghai, China). Purity and molecular mass of the peptides were provided by the vendors using HPLC and mass spectrometry, respectively. The purity of all peptides were >98%. Minimum inhibitory concentrations (MIC) of buCATHL4s against the pathogenic microorganisms were tested by broth micro-dilution technique. Briefly, bacteria were grown in Mueller Hinton broth (Sigma-Aldrich, MO, USA) at 37°C. The OD of early-log phase cultures were adjusted to 0.08–0.1 and further diluted (1:200) to keep inoculums concentration nearly 10^6 colony forming units (CFU)/ml. Diluted peptides (10 μl) were mixed with equi-volume solution A (0.02% acetic acid containing 0.4% BSA) and were serially diluted in the solution B (0.01% acetic acid containing 0.2% BSA). Bacterial inoculums (90 μl) were mixed with serially diluted peptides and incubated at 37°C for 24 h without shaking. […] All peptides were tested in triplicate. For time kill kinetics experiments, peptides (1×, 2× and 4× MIC) were added to bacterial suspension of Staphylococcus aureus, Salmonella enterica and Pseudomonas aeruginosa, as described in the MIC determination method. Aliquots of representative wells were diluted and plated on Muller Hinton agar plates at 0, 1, 4, 12 and 24 h intervals. Water with 0.01% acetic acid and ampicillin (100 mg/ml) were taken as […] controls, respectively. The results were represented as log CFU/ml.
# [4] = system: Bacillus cereus NCDC-0240; type: cell-based
# Method: as §3
# [5] = system: Listeria monocytogenes ATCC-19111; type: cell-based
# Method: as §3
# [6] = system: Escherichia coli MTCC-0723; type: cell-based
# Method: as §3
# [7] = system: Acinetobacter johnsonii NCDC-0072; type: cell-based
# Method: as §3
# [8] = system: Salmonella typhimurium ATCC-14028; type: cell-based
# Method: as §3
# [9] = system: Pseudomonas aeruginosa NCDC-0105; type: cell-based
# Method: as §3
# S. typhimurium [10] = assay: Scanning and transmission electron microscopy; type: cell-based, Salmonella typhimurium; details: for Morphological change of S. typhimurium cells (SEM/TEM): increasing concentrations (>2× MIC)
# Method: (§4) Early log phase cultures of S. aureus and S. enterica were subjected to different concentration of peptides and incubated at 37°C. The bacterial pellets after centrifugation (5000 g for 10 min) were washed with 0.1M cacodylate buffer (pH 7.2) and were fixed in 2.5% gluteraldehyde at 4°C for 2 h. For scanning electron microscopy, bacteria were dehydrated using gradient series of ethanol wash (30, 50, 70, 90 and absolute). The samples were air-dried overnight, gold coated (Eiko IB-3 ion coater), and viewed in a Zeiss EVO 18 Special Edition SEM. For transmission electron microscopy, fixed samples were adhered to hexagonal PELCO® Grids (Ted Pella, Inc. USA), washed once with Mili-Q water and stained with uranyl acetate (2%) buffer. Samples were viewed in a JEM 1011 (Jeol, Japan) microscope.
# P. aeruginosa biofilm = assay: Biofilm assay (crystal violet); type: cell-based, Pseudomonas aeruginosa; details: 24 h 37°C, crystal violet A570
# Method: as §1
# S. aureus [11] = assay: Time kill kinetics; type: cell-based, Staphylococcus aureus; details: for Growth inhibition of S. aureus in time kill kinetics: peptide at 2× MIC, plating at 0, 1, 4, 12, 24 h; for Time to complete elimination of S. aureus: peptide at 4× MIC, time kill kinetics
# Method: as §3
# S. aureus [12] = assay: LIVE/DEAD BacLight membrane permeability assay; type: cell-based, Staphylococcus aureus; details: peptide 200μM, log phase culture, SYTO9/PI
# Method: as §2
# [13] = system: Stahylococcus aureus ATCC-29213; type: cell-based, Staphylococcus aureus
# Method: as §3
# [14] = system: Stahylococcus aureus NCDC-0111; type: cell-based, Staphylococcus aureus
# Method: as §3
# S. aureus [15] = assay: Scanning and transmission electron microscopy; type: cell-based, Staphylococcus aureus
# Method: as §4
# [16] = system: S. aureus, S. typhimurium and P. aeruginosa; assay: Time kill kinetics, three pathogens; type: cell-based; details: peptide at 4× MIC
# Method: as §3
# S. aureus biofilm = assay: Biofilm assay (crystal violet); type: cell-based, Staphylococcus aureus; details: peptide at 1× and 2× MIC, 24 h 37°C, crystal violet A570
# Method: as §1
# [17] = increasing concentrations (>2× MIC)
Molecule,Effect against growth of bacterial biofilms (overall) [1],Clumping (agglutination) of S. typhimurium after peptide addition (S. typhimurium [2]),Membrane permeability of latent (stationary phase) S. typhimurium (S. typhimurium [2]),"MIC ([3]; ATCC-27853, 24 h) [µM]","MIC ([4]; NCDC-0240, 24 h) [µM]","MIC ([5]; ATCC-19111, 24 h) [µM]","MIC ([6]; MTCC-0723, 24 h) [µM]",MIC ([7]; 24 h) [µM],"MIC ([8]; ATCC-14028, 24 h) [µM]","MIC ([9]; NCDC-0105, 24 h) [µM]",Morphological change of S. typhimurium cells (SEM/TEM) (S. typhimurium [10]),Growth inhibition of S. aureus in time kill kinetics (S. aureus [11]),Time to complete elimination of S. aureus (S. aureus [11]) [h],Clumping (agglutination) of S. aureus after peptide addition (S. aureus [12]),"MIC ([13]; ATCC-29213, 24 h) [µM]",MIC ([14]; 24 h) [µM],Morphological change of S. aureus cells (SEM/TEM) (S. aureus [15]; [17]),Morphological change of S. aureus cells (SEM/TEM) (S. aureus [15]; lower concentrations (≤2× MIC)),Killing rate compared with indolicidin and ampicillin [16],Reduction in biofilm growth of S. aureus (S. aureus biofilm),other results
AIPWSIWWRLLFKG [buCATHL4F],no marked effect,immediate clumping,affected membrane permeability,100,100,3,>200,200,0.2,50,budding,complete growth inhibition,4,immediate clumping,6,6,budding,swelling and blebing,–,–,Reduction in biofilm growth of P. aeruginosa (P. aeruginosa biofilm; peptide at 2× MIC): considerably
AIPWSIWWHLLFKG [buCATHL4G],no marked effect,immediate clumping,–,200,50,1.5,50,25,3,200,budding,–,4,immediate clumping,0.8,12.5,budding,swelling and blebing,comparatively better killing rate,–,–
"CC[C@H](C)[C@H](N)C(=O)N[C@@H](CC(C)C)C(=O)N1CCC[C@H]1C(=O)N[C@@H](Cc1c[nH]c2ccccc12)C(=O)N[C@@H](CCCCN)C(=O)N[C@@H](Cc1c[nH]c2ccccc12)C(=O)N1CCC[C@H]1C(=O)N[C@@H](Cc1c[nH]c2ccccc12)C(=O)N[C@@H](Cc1c[nH]c2ccccc12)C(=O)N1CCC[C@H]1C(=O)N[C@@H](Cc1c[nH]c2ccccc12)C(=O)N[C@@H](CCCNC(=N)N)C(=O)N[C@@H](CCCNC(=N)N)C(N)=O [Indolicidin, indolicidin, reference compound]",–,–,–,–,–,–,–,–,–,–,–,–,–,–,–,–,–,–,–,effective,"MIC ([3]; Pseudomonas aeruginosa ATCC-27853, broth microdilution, Mueller Hinton broth, ~10^6 CFU/ml, 37°C 24 h, no visible turbidity, triplicate): 25 µM; MIC ([4]; Bacillus cereus NCDC-0240, broth microdilution, Mueller Hinton broth, ~10^6 CFU/ml, 37°C 24 h, no visible turbidity, triplicate): 0.8 µM; MIC ([5]; Listeria monocytogenes ATCC-19111, broth microdilution, Mueller Hinton broth, ~10^6 CFU/ml, 37°C 24 h, no visible turbidity, triplicate): 6 µM; MIC ([6]; Escherichia coli MTCC-0723, broth microdilution, Mueller Hinton broth, ~10^6 CFU/ml, 37°C 24 h, no visible turbidity, triplicate): 0.8 µM; MIC ([7]; Acinetobacter johnsonii NCDC-0072, broth microdilution, Mueller Hinton broth, ~10^6 CFU/ml, 37°C 24 h, no visible turbidity, triplicate): 6 µM; MIC ([8]; Salmonella typhimurium ATCC-14028, broth microdilution, Mueller Hinton broth, ~10^6 CFU/ml, 37°C 24 h, no visible turbidity, triplicate): 12.5 µM; MIC ([9]; Pseudomonas aeruginosa NCDC-0105, broth microdilution, Mueller Hinton broth, ~10^6 CFU/ml, 37°C 24 h, no visible turbidity, triplicate): 12.5 µM; Reduction in biofilm growth of P. aeruginosa (P. aeruginosa biofilm; peptide at 1× and 2× MIC): effective; MIC ([13]; Stahylococcus aureus ATCC-29213, broth microdilution, Mueller Hinton broth, ~10^6 CFU/ml, 37°C 24 h, no visible turbidity, triplicate): 3 µM; MIC ([14]; Stahylococcus aureus NCDC-0111, broth microdilution, Mueller Hinton broth, ~10^6 CFU/ml, 37°C 24 h, no visible turbidity, triplicate): 1.5 µM"
GLPWILLRWLFFRG [buCATHL4A],–,–,–,>200,100,6,200,200,100,>200,–,–,–,–,3,25,–,–,–,–,–
RIRFPWPWRWPWWPRFRG [buCATHL4D],–,–,affected membrane permeability,25,1.5,6,6,50,50,50,–,complete growth inhibition,–,–,6,12.5,–,–,comparatively better killing rate,substantial,Formation of negative curvature on membrane (SEM/TEM) (S. typhimurium [10]; more evident with S. typhimurium): Formation of negative curvature; Reduction in biofilm growth of P. aeruginosa (P. aeruginosa biofilm; peptide at 1× and 2× MIC): substantial
